{
  "source": "ChEMBL document CHEMBL4017462",
  "about": "“Antiplasmodial β-triketones from the flowers of the Australian tree Angophora woodsiana” (Bioorg Med Chem Lett, 2017)",
  "key": {"Plasmodium falciparum [1]": {"tested_on": "Plasmodium falciparum", "assay": "Antiplasmodial activity against chloroquine-sensitive Plasmodium falciparum 3D7 measured after 72 hrs by DAPI staining based high throughput screening assay", "type": "functional", "conditions": "3D7, 72 h"}, "Plasmodium falciparum [2]": {"tested_on": "Plasmodium falciparum", "assay": "Antiplasmodial activity against chloroquine-resistant Plasmodium falciparum Dd2 measured after 72 hrs by DAPI staining based high throughput screening assay", "type": "functional", "conditions": "Dd2, 72 h"}, "HEK293": {"tested_on": "HEK293", "assay": "Growth inhibition of HEK293 cells", "type": "cell-based", "conditions": "Homo sapiens"}, "[3]": {"assay": "Selectivity index, ratio of IC50 for HEK293 cells to IC50 for chloroquine-resistant Plasmodium falciparum Dd2", "type": "toxicity", "conditions": "human; read-out: Ratio IC50"}, "Plasmodium falciparum [4]": {"tested_on": "Plasmodium falciparum", "assay": "Antiplasmodial activity against chloroquine-sensitive Plasmodium falciparum 3D7", "type": "functional"}, "Plasmodium falciparum [5]": {"tested_on": "Plasmodium falciparum", "assay": "Antiplasmodial activity against chloroquine-resistant Plasmodium falciparum Dd2", "type": "functional"}, "[6]": {"assay": "Growth inhibition of HEK293 cells at 120 uM relative to control", "type": "cell-based", "conditions": "human, read-out: GI"}, "[7]": {"assay": "Growth inhibition of HEK293 cells at 100 uM relative to control", "type": "cell-based", "conditions": "human, read-out: GI"}, "[8]": {"assay": "Growth inhibition of HEK293 cells at 20 uM relative to control", "type": "cell-based", "conditions": "human, read-out: GI"}, "[9]": {"assay": "Growth inhibition of HEK293 cells at 40 uM relative to control", "type": "cell-based", "conditions": "human, read-out: GI"}, "Plasmodium falciparum [10]": {"tested_on": "Plasmodium falciparum", "assay": "Antiplasmodial activity against chloroquine-resistant Plasmodium falciparum Dd2 at 40 uM measured after 72 hrs by DAPI staining based high throughput screening assay relative to control", "type": "functional"}},
  "data": [
    {"smiles": "CC(C)C[C@H]1C[C@@]2(CC[C@H]3C[C@@H]2C3(C)C)OC2=C1C(=O)C(C)(C)C(=O)C2(C)C", "values": [
      {"measurement": "IC50", "setting": "Plasmodium falciparum [1]", "value": 6.7, "unit": "µM"}
    ]},
    {"smiles": "CC(C)C[C@@H]1OC12C(=O)C(C)(C)C(=O)C(C)(C)C2=O", "values": [
      {"measurement": "IC50", "setting": "Plasmodium falciparum [1]", "value": 3, "unit": "µM"},
      {"measurement": "IC50", "setting": "Plasmodium falciparum [2]", "value": 2.53, "unit": "µM"},
      {"measurement": "IC50", "setting": "HEK293", "value": 15.9, "unit": "µM"},
      {"measurement": "selectivity ratio", "setting": "[3]", "value": "< 10"}
    ]},
    {"smiles": "C=C1CC[C@H]2[C@H](CC(C)C)C3=C(O[C@]2(C)CC[C@@H]2[C@@H]1CC2(C)C)C(C)(C)C(=O)C(C)(C)C3=O", "values": [
      {"measurement": "IC50", "setting": "Plasmodium falciparum [1]", "value": 11.3, "unit": "µM"}
    ]},
    {"smiles": "CC(C)CC(=O)c1c(O)c2c(c3c1O[C@]1(C(C)C)OC4=C(C(=O)C(C)(C)C(=O)C4(C)C)[C@H]31)OC1=C(C(=O)C(C)(C)C(=O)C1(C)C)[C@@H]2CC(C)C", "values": [
      {"measurement": "IC50", "setting": "Plasmodium falciparum [4]", "value": 1, "unit": "µM"},
      {"measurement": "IC50", "setting": "Plasmodium falciparum [5]", "value": 1.49, "unit": "µM"}
    ]},
    {"smiles": "Cc1c2c(c(O)c3c1OC1=C(C(=O)C(C)(C)C(=O)C1(C)C)[C@@H]3CC(C)C)C(=O)C[C@@H](c1ccccc1)O2", "values": [
      {"measurement": "IC50", "setting": "Plasmodium falciparum [1]", "value": 10.7, "unit": "µM"}
    ]},
    {"smiles": "CC(C)[C@]12OC3=C(C(=O)C(C)(C)C(=O)C3(C)C)[C@H]1C1=C(O2)C(C)(C)C(=O)C(C)(C)C1=O", "values": [
      {"measurement": "IC50", "setting": "Plasmodium falciparum [1]", "value": 14, "unit": "µM"}
    ]},
    {"smiles": "Cc1c(O)c(C(=O)CCc2ccccc2)c2c(c1O)[C@@H]1C3=C(O[C@]1(C(C)C)O2)C(C)(C)C(=O)C(C)(C)C3=O", "values": [
      {"measurement": "IC50", "setting": "Plasmodium falciparum [1]", "value": 1.07, "unit": "µM"},
      {"measurement": "IC50", "setting": "Plasmodium falciparum [4]", "value": 0.29, "unit": "µM"},
      {"measurement": "IC50", "setting": "Plasmodium falciparum [5]", "value": 0.44, "unit": "µM"},
      {"measurement": "inhibition at 120 µM", "setting": "[6]", "value": 85, "unit": "%"}
    ]},
    {"smiles": "C=C1CC[C@H]2[C@@H](CC(C)C)C3=C(O[C@]2(C)CC[C@@H]2[C@@H]1CC2(C)C)C(C)(C)C(=O)C(C)(C)C3=O", "values": [
      {"measurement": "IC50", "setting": "Plasmodium falciparum [1]", "value": 8.9, "unit": "µM"}
    ]},
    {"smiles": "CC(C)C[C@H]1C2=C(O[C@@]3(C)C=C4[C@@H](C[C@@H]13)[C@@H](C)CC[C@@H]4C(C)C)C(C)(C)C(=O)C(C)(C)C2=O", "values": [
      {"measurement": "IC50", "setting": "Plasmodium falciparum [1]", "value": 26.9, "unit": "µM"},
      {"measurement": "inhibition at 100 µM", "setting": "[7]", "value": 68, "unit": "%"}
    ]},
    {"smiles": "CC(C)CC(=O)c1c(O)cc(O)c2c1O[C@@]1(C(C)C)OC3=C(C(=O)C(C)(C)C(=O)C3(C)C)[C@@H]21", "values": [
      {"measurement": "IC50", "setting": "Plasmodium falciparum [1]", "value": 10.5, "unit": "µM"},
      {"measurement": "inhibition at 100 µM", "setting": "[7]", "value": 59, "unit": "%"}
    ]},
    {"smiles": "CC(C)CC(C1=C(O)C(C)(C)C(=O)C(C)(C)C1=O)C1=C(O)C(C)(C)C(=O)C(C)(C)C1=O", "values": [
      {"measurement": "IC50", "setting": "Plasmodium falciparum [1]", "value": 0.44, "unit": "µM"},
      {"measurement": "IC50", "setting": "Plasmodium falciparum [4]", "value": 5.3, "unit": "µM"},
      {"measurement": "IC50", "setting": "Plasmodium falciparum [5]", "value": 8.8, "unit": "µM"},
      {"measurement": "inhibition at 120 µM", "setting": "[6]", "value": 42, "unit": "%"}
    ]},
    {"smiles": "CC(C)CC(=O)c1c(O)cc2c(c1O)[C@@H](CC(C)C)C1=C(O2)C(C)(C)C(=O)C(C)(C)C1=O", "values": [
      {"measurement": "IC50", "setting": "Plasmodium falciparum [1]", "value": 1.8, "unit": "µM"},
      {"measurement": "IC50", "setting": "Plasmodium falciparum [2]", "value": 4, "unit": "µM"},
      {"measurement": "IC50", "setting": "HEK293", "value": 11.4, "unit": "µM"},
      {"measurement": "selectivity ratio", "setting": "[3]", "value": "< 10"}
    ]},
    {"smiles": "C[C@H]1[C@H](OC(=O)CCC(=O)O)O[C@@H]2O[C@@]3(C)CC[C@H]4[C@H](C)CC[C@@H]1[C@@]24OO3", "note": "[ARTESUNATE]", "values": [
      {"measurement": "IC50", "setting": "Plasmodium falciparum [1]", "value": 0.001, "unit": "µM"},
      {"measurement": "inhibition at 20 µM", "setting": "[8]", "value": 94, "unit": "%"}
    ]},
    {"smiles": "COc1ccc(C[C@H](N)C(=O)N[C@H]2[C@@H](O)[C@H](n3cnc4c(N(C)C)ncnc43)O[C@@H]2CO)cc1", "note": "[PUROMYCIN]", "values": [
      {"measurement": "IC50", "setting": "Plasmodium falciparum [2]", "value": 0.061, "unit": "µM"},
      {"measurement": "IC50", "setting": "HEK293", "value": 0.399, "unit": "µM"}
    ]},
    {"smiles": "CCc1nc(N)nc(N)c1-c1ccc(Cl)cc1", "note": "[PYRIMETHAMINE]", "values": [
      {"measurement": "IC50", "setting": "Plasmodium falciparum [1]", "value": 0.008, "unit": "µM"},
      {"measurement": "inhibition at 40 µM", "setting": "[9]", "value": 62, "unit": "%"},
      {"measurement": "Activity", "setting": "Plasmodium falciparum [10]", "value": 62, "unit": "%"}
    ]},
    {"smiles": "COc1ccc2nc3cc(Cl)ccc3c(Nc3cc(CN4CCCC4)c(O)c(CN4CCCC4)c3)c2n1", "note": "[PYRONARIDINE]", "values": [
      {"measurement": "IC50", "setting": "Plasmodium falciparum [1]", "value": 0.0119, "unit": "µM"},
      {"measurement": "IC50", "setting": "Plasmodium falciparum [2]", "value": 0.018, "unit": "µM"},
      {"measurement": "IC50", "setting": "HEK293", "value": 5.22, "unit": "µM"}
    ]}
  ]
}
